Experimental data reported in US10894784B2, “Heteroarylbenzimidazole compounds” (BAYER PHARMA AKTIENGESELLSCHAFT, priority 2015, dated 2021).

Molecular target: TBK1 (Homo sapiens (Human), UniProt Q9UHD2)
Assay: TBK1 low ATP kinase assay (in vitro assay 1)
Type: biochemical
Settings: in vitro assay 1, read-out: TBK1 low ATP kinase assay IC50

TBK1, sequence (Q9UHD2 whole entry): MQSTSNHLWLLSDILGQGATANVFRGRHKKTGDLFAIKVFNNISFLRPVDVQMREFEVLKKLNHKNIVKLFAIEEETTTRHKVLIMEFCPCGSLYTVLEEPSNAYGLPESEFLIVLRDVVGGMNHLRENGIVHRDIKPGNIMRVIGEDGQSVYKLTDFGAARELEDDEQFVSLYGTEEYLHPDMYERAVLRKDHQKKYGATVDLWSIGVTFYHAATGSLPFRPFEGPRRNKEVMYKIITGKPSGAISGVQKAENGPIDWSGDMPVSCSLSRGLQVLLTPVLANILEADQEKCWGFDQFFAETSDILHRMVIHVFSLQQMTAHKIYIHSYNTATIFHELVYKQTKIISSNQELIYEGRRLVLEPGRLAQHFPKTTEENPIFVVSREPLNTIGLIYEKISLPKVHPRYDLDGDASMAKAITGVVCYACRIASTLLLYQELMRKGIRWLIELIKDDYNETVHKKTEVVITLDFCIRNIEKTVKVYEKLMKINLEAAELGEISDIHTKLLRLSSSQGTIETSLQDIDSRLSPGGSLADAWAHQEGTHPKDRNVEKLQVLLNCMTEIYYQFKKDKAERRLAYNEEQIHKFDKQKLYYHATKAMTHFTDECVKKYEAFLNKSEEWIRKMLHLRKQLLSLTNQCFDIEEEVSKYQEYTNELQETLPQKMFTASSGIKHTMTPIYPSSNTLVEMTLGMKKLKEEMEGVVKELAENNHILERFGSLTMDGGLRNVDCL

Row | Structure (SMILES) | IC50 [nM]
1 | COc1c(-c2ccc3nc(Nc4cc(CN5CCN(C(=O)CC(F)(F)F)CC5)ccn4)[nH]c3c2)ncnc1N(C)C [Example 107.01.03, 1-(4-{[2-({6-[6-(dimethylamino)-5-methoxypyrimidin-4-yl]-1H-benzimidazol-2-yl}amino)pyridin-4-yl]methyl}piperazin-1-yl)-3,3,3-trifluoropropan-1-one] | 13
2 | CC(c1ccnc(Nc2nc3ccc(-c4ccncn4)cc3[nH]2)c1)N1CCN(C(=O)C2CCC2)CC1 (single isomer, unassigned) [Example 23.05.03.A, cyclobutyl{4-[(1R or 1S)-1-(2-{[6-(pyrimidin-4-yl)-1H-benzimidazol-2-yl]amino}pyridin-4-yl)ethyl]piperazin-1-yl}methanone] | 2.99
3 | Cc1cc(CN2CCN(C(=O)C3CC3)CC2)cc(Nc2nc3ccc(-c4ccncn4)cc3[nH]2)n1 [Example 23.02.02, cyclopropyl{4-[(2-methyl-6-{[6-(pyrimidin-4-yl)-1H-benzimidazol-2-yl]amino}pyridin-4-yl)methyl]piperazin-1-yl}methanone] | 13.6
4 | CC(c1ccnc(Nc2nc3ccc(-c4cnn(CC5CC5(F)F)c4)c(Cl)c3[nH]2)c1)N1CCN(C(=O)CC(F)(F)F)CC1 (single isomer, unassigned) [Example 70.01, 1-{4-[(1R or 1S)-1-(2-{[7-chloro-6-(1-{[(1RS)-2,2-difluorocyclopropyl]methyl}-1H-pyrazol-4-yl)-1H-benzimidazol-2-yl]amino}pyridin-4-yl)ethyl]piperazin-1-yl}-3,3,3-trifluoropropan-1-one] | 0.88
5 | Nc1cc(-c2ccc3nc(Nc4cc(CN5CCN(C(=O)CC(F)(F)F)CC5)ccn4)[nH]c3c2)ccn1 [Example 138.02, 1-{4-[(2-{[6-(2-aminopyridin-4-yl)-1H-benzimidazol-2-yl]amino}pyridin-4-yl)methyl]piperazin-1-yl}-3,3,3-trifluoropropan-1-one] | 4.1
6 | CC(c1ccnc(Nc2nc3ccc(-c4cc(C(F)(F)F)ncn4)c(F)c3[nH]2)c1)N1CCN(C(=O)CC(F)(F)F)CC1 (single isomer, unassigned) [Example 173.02, 3,3,3-trifluoro-1-(4-{(1R or 1S)-1-[2-({7-fluoro-6-[6-(trifluoromethyl)pyrimidin-4-yl]-1H-benzimidazol-2-yl}amino)pyridin-4-yl]ethyl}piperazin-1-yl)propan-1-one] | 77.1
7 | CC(c1ccnc(Nc2nc3ccc(-c4ccncn4)cc3[nH]2)c1)N1CCN(C(=O)C2CC2)CC1 (single isomer, unassigned) [Example 23.05.01.B, cyclopropyl{4-[(1S or 1R)-1-(2-{[6-(pyrimidin-4-yl)-1H-benzimidazol-2-yl]amino}pyridin-4-yl)ethyl]piperazin-1-yl}methanone] | 12.4
8 | Cc1nccc(-c2ccc3nc(Nc4cc(CN5CCN(C(=O)C6CCC6)CC5)ccn4)[nH]c3c2)n1 [Example 24.01.02, cyclobutyl{4-[(2-{[6-(2-methylpyrimidin-4-yl)-1H-benzimidazol-2-yl]amino}pyridin-4-yl)methyl]piperazin-1-yl}methanone] | 39.9
9 | Cc1nccc(-c2ccc3nc(Nc4cc(CN5CCN(C(=O)C6CC6)CC5)ccn4)[nH]c3c2)c1Cl [Example 130.03, {4-[(2-{[6-(3-chloro-2-methylpyridin-4-yl)-1H-benzimidazol-2-yl]amino}pyridin-4-yl)methyl]piperazin-1-yl}(cyclopropyl)methanone] | 250
10 | CC(c1ccnc(Nc2nc3ccc(-c4cc(OCC(F)(F)C(F)(F)F)ncn4)cc3[nH]2)c1)N1CCN(C(=O)[C@@H]2CC2(F)F)CC1 (single isomer, unassigned) [Example 166.05, ((1RS)-2,2-difluorocyclopropyl)(4-{(1R or 1S)-1-[2-({6-[6-(2,2,3,3,3-pentafluoropropoxy)pyrimidin-4-yl]-1H-benzimidazol-2-yl}amino)pyridin-4-yl]ethyl}piperazin-1-yl)methanone] | 34.2
11 | COc1ccccc1N1CCN(Cc2ccnc(Nc3nc4ccc(-c5nc(C)no5)cc4[nH]3)c2)CC1 [Example 101.07, N-(4-{[4-(2-methoxyphenyl)piperazin-1-yl]methyl}pyridin-2-yl)-6-(3-methyl-1,2,4-oxadiazol-5-yl)-1H-benzimidazol-2-amine] | 170
12 | CC(c1ccnc(Nc2nc3ccc(-c4cnn(CC5CC5(F)F)c4)cc3[nH]2)c1)N1CCN(C(=O)C2CC2)CC1 (single isomer, unassigned) [Example 55.03.02, cyclopropyl{4-[(1R or 1S)-1-(2-{[6-(1-{[(1R or 1S)-2,2-difluorocyclopropyl]methyl}-1H-pyrazol-4-yl)-1H-benzimidazol-2-yl]amino}pyridin-4-yl)ethyl]piperazin-1-yl}methanone] | 0.66
13 | Cc1noc(-c2ccc3nc(Nc4cc(CN5CCN(C(=O)CC6CC6)CC5(C)C)ccn4)[nH]c3c2)n1 [Example 16.04.03, 2-cyclopropyl-1-{3,3-dimethyl-4-[(2-{[6-(3-methyl-1,2,4-oxadiazol-5-yl)-1H-benzimidazol-2-yl]amino}pyridin-4-yl)methyl]piperazin-1-yl}ethanone] | 378
14 | COc1cncnc1-c1ccc2nc(Nc3cc(C(C)N4CCN(C(=O)C5CC5)CC4)ccn3)[nH]c2c1 (single isomer, unassigned) [Example 35.03.03.A, cyclopropyl{4-[(1R or 1S)-1-(2-{[6-(5-methoxypyrimidin-4-yl)-1H-benzimidazol-2-yl]amino}pyridin-4-yl)ethyl]piperazin-1-yl}methanone] | 5.62
15 | Cc1cc(-c2ccc3nc(Nc4cc(C(C)N5CCN(C(=O)C6CCC6)CC5)ccn4)[nH]c3c2)ncn1 (single isomer, unassigned) [Example 30.03.02.A, cyclobutyl{4-[(1R or 1S)-1-(2-{[6-(6-methylpyrimidin-4-yl)-1H-benzimidazol-2-yl]amino}pyridin-4-yl)ethyl]piperazin-1-yl}methanone] | 4.15
16 | O=C(C1CC1)N1CCN(Cc2ccnc(Nc3nc4ccc(-c5ncnc6ccoc56)cc4[nH]3)c2)CC1 [Example 168.03, cyclopropyl{4-[(2-{[6-(furo[3,2-d]pyrimidin-4-yl)-1H-benzimidazol-2-yl]amino}pyridin-4-yl)methyl]piperazin-1-yl}methanone] | 7.12
17 | COc1cncnc1-c1ccc2nc(Nc3cc(CN4CCN(S(=O)(=O)C5CCCCC5)CC4)ccn3)[nH]c2c1 [Example 35.01.13, N-(4-{[4-(cyclohexylsulfonyl)piperazin-1-yl]methyl}pyridin-2-yl)-6-(5-methoxypyrimidin-4-yl)-1H-benzimidazol-2-amine] | 60.9
18 | CC(c1ccnc(Nc2nc3ccc(-c4ccncn4)cc3[nH]2)c1)N1CCN(C(=O)C2CC2)CC1 (single isomer, unassigned) [Example 23.05.01.A, cyclopropyl{4-[(1R or 1S)-1-(2-{[6-(pyrimidin-4-yl)-1H-benzimidazol-2-yl]amino}pyridin-4-yl)ethyl]piperazin-1-yl}methanone] | 2.05
19 | CC(c1ccnc(Nc2nc3ccc(-c4cnn(CC5CC5(F)F)c4)cc3[nH]2)c1)N1CCN(C(=O)C2CC2)CC1 (single isomer, unassigned) [Example 55.03.01, cyclopropyl{4-[(1R or 1S)-1-(2-{[6-(1-{[(1R or 1S)-2,2-difluorocyclopropyl]methyl}-1H-pyrazol-4-yl)-1H-benzimidazol-2-yl]amino}pyridin-4-yl)ethyl]piperazin-1-yl}methanone] | 0.61
20 | COc1cnccc1-c1ccc2nc(Nc3cc(CN4CCN(C(=O)OC(C)(C)C)CC4)ccn3)[nH]c2c1 [Example 04.01, tert-butyl 4-[(2-{[6-(3-methoxypyridin-4-yl)-1H-benzimidazol-2-yl]amino}pyridin-4-yl)methyl]piperazine-1-carboxylate] | 28.5
21 | CC(c1ccnc(Nc2nc3ccc(-c4cnn(CC5CCC5)c4)c(Cl)c3[nH]2)c1)N1CCN(C(=O)C2CC2)CC1 (single isomer, unassigned) [Example 75.03, (4-{(1R or 1S)-1-[2-({7-chloro-6-[1-(cyclobutylmethyl)-1H-pyrazol-4-yl]-1H-benzimidazol-2-yl}amino)pyridin-4-yl]ethyl}piperazin-1-yl)(cyclopropyl)methanone] | 0.88
22 | COc1nccc(-c2ccc3nc(Nc4cc(CN5CCN(C(=O)CC(F)(F)F)CC5)ccn4)[nH]c3c2)n1 [Example 25.01.04, 3,3,3-trifluoro-1-{4-[(2-{[6-(2-methoxypyrimidin-4-yl)-1H-benzimidazol-2-yl]amino}pyridin-4-yl)methyl]piperazin-1-yl}propan-1-one] | 79
23 | CC(C)(C)OC(=O)N1CCN(Cc2ccnc(Nc3nc4ccc(-c5ncnc6c5COC6)cc4[nH]3)c2)CC1 [Example 182.01, tert-butyl 4-[(2-{[6-(5,7-dihydrofuro[3,4-d]pyrimidin-4-yl)-1H-benzimidazol-2-yl]amino}pyridin-4-yl)methyl]piperazine-1-carboxylate] | 275
24 | COc1cncnc1-c1ccc2nc(Nc3cc(CN4CCN(S(=O)(=O)N5CC(C)OC(C)C5)CC4)ccn3)[nH]c2c1 (centres unmarked) [Example 35.01.18, N-[4-({4-[(2,6-dimethylmorpholin-4-yl)sulfonyl]piperazin-1-yl}methyl)pyridin-2-yl]-6-(5-methoxypyrimidin-4-yl)-1H-benzimidazol-2-amine] | 41.8
25 | Cc1cccc(N2CCN(Cc3ccnc(Nc4nc5ccc(-c6nc(C)no6)cc5[nH]4)c3)CC2)c1 [Example 101.03, 6-(3-methyl-1,2,4-oxadiazol-5-yl)-N-(4-{[4-(3-methylphenyl)piperazin-1-yl]methyl}pyridin-2-yl)-1H-benzimidazol-2-amine] | 690
26 | CCOc1nccc(-c2ccc3nc(Nc4cc(C(C)N5CCN(C(=O)CC(F)(F)F)CC5)ccn4)[nH]c3c2)n1 (single isomer, unassigned) [Example 26.03.01.A, 1-{4-[(1R or 1S)-1-(2-{[6-(2-ethoxypyrimidin-4-yl)-1H-benzimidazol-2-yl]amino}pyridin-4-yl)ethyl]piperazin-1-yl}-3,3,3-trifluoropropan-1-one] | 2.98
